The subject of test [1] is cyclin D1. In words: Cyclin D1 percentage degradation in Calu-1 cells (immunoblotting). It counts as cell-based. The note with it: 16 hours. A digest of the protocol: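 Cyclin D1 degradation was assessed by western blot. Clarified lysates, obtained by RIPA lysis with inhibitors and centrifugation at 13,000 rpm, were normalized by BCA protein assay and separated by SDS-PAGE. Bands were detected with Western ECL Substrate on a Bio-Rad ChemiDoc MP Imaging system and quantified in Image Lab software to derive percentage degradation.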
For orientation: A western blot detects proteins with antibodies after separation by electrophoresis.

Test [2] addresses T1, CDK4 (Homo sapiens, UniProt P11802).
T1 construct: endogenous in cells; host or cells: Calu-1
Briefly: CDK4 percentage degradation in Calu-1 cells (immunoblotting). It counts as cell-based. To be noted: Calu-1 cells, 16 hours; for inhibition at 10 µM: read-out: CDK4 Degradation (10 μM); for inhibition at 0.2 µM: 200 nM, read-out: CDK4 Degradation (200 nM). Summed up: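 CDK4 degradation was measured by immunoblotting. Cells were washed in cold PBS and lysed in RIPA buffer with inhibitors for 30 min at 4° C., then spun at 13,000 rpm to clear. After BCA protein determination, lysates were heated at 99° C. for 5 min in Laemmli buffer, resolved on SDS-PAGE, imaged on a ChemiDoc MP with ECL substrate, and band intensities quantified.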

A value given as a limit tells only on which side of the number the result lay.

T1 sequence (P11802 2-303 limits assumed): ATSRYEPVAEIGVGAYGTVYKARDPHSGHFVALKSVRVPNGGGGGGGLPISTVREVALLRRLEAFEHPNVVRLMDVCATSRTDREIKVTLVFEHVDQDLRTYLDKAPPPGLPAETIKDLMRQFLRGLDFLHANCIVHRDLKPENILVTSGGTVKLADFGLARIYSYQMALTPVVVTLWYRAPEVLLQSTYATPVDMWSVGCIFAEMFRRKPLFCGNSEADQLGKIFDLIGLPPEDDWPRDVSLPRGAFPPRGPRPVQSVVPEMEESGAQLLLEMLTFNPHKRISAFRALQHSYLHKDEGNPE
T1 sequence (P24385 whole entry partner): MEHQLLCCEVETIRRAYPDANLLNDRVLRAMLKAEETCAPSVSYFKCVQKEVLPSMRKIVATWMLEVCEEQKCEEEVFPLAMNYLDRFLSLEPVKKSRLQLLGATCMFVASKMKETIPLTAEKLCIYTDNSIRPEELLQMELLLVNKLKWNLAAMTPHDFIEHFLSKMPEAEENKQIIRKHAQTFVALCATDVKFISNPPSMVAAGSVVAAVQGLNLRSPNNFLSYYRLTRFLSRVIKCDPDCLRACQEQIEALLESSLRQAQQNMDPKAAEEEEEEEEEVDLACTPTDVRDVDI
T1 sequence (Q16531 2-1140 limits assumed, further chain): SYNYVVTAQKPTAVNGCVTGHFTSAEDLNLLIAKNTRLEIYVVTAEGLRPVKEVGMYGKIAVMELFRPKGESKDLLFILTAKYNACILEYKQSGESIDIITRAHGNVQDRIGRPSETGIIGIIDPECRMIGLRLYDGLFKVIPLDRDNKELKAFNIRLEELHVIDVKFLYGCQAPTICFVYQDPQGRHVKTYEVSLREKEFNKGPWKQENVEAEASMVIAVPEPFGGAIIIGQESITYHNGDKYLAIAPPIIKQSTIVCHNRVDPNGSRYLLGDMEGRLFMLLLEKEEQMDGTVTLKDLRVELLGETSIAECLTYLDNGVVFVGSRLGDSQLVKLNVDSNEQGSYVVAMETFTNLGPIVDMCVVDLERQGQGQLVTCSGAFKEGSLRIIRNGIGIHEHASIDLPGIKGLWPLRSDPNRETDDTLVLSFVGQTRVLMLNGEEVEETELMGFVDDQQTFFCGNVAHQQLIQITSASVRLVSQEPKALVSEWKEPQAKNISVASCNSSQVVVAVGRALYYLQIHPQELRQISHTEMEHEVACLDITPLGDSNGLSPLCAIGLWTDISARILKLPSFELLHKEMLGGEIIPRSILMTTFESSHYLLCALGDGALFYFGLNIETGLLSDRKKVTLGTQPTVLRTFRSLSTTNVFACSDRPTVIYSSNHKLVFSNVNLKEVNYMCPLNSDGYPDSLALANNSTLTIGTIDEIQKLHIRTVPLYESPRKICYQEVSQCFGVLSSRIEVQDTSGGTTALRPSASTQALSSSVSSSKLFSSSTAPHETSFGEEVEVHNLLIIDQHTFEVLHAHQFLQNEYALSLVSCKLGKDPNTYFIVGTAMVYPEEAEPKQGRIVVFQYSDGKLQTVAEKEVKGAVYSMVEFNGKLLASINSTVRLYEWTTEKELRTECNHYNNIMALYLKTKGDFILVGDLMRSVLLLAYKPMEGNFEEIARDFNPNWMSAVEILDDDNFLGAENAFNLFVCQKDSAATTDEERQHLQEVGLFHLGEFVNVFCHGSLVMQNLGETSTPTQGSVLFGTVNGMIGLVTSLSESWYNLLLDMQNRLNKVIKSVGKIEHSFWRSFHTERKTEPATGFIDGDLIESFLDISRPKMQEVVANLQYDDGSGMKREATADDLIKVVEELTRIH

`Cc1nc(NC(=O)c2ccccc2NC(=O)CCCCCCCCNC(=O)CN2CCN(c3ccc(Nc4ncc5cc6n(c5n4)C4(CCCCC4)CNC6=O)nc3)CC2)sc1C` [CPD-321, N-(4,5-Dimethylthiazol-2-yl)-2-(9-(2-(4-(6-((6′-oxo-7′,8′-dihydro-6′H-spiro[cyclohexane-1,9′-pyrazino[1′,2′:1,5]pyrrolo[2,3-d]pyrimidin]-2′-yl)amino)pyridin-3-yl)piperazin-1-yl)acetamido)nonanamido)benzamide]: in test [1], the “CyclinD1 Degradation (10 μM)” value is on record as “A (protein percentage degradation >= 80%)”. Also, in test [2], the inhibition at 10 µM lay in the range of 50 to 80%.

For `Cc1nc(NC(=O)c2ccccc2NC(=O)CCOCCNC(=O)CN2CCN(c3ccc(Nc4ncc5cc6n(c5n4)C4(CCCCC4)CNC6=O)nc3)CC2)sc1C` [CPD-322, N-(4,5-Dimethylthiazol-2-yl)-2-(3-(2-(2-(4-(6-((6′-oxo-7′,8′-dihydro-6′H-spiro[cyclohexane-1,9′-pyrazino[1′,2′:1,5]pyrrolo[2,3-d]pyrimidin]-2′-yl)amino)pyridin-3-yl)piperazin-1-yl)acetamido)ethoxy)propanamido)benzamide], the “CyclinD1 Degradation (10 μM)” value in test [1] was “A (protein percentage degradation >= 80%)”. In addition, the inhibition at 10 µM in test [2] fell in the range of 50 to 80%.

Regarding `Cc1nc(NC(=O)c2ccccc2NC(=O)CCOCCOCCNC(=O)CN2CCN(c3ccc(Nc4ncc5cc6n(c5n4)C4(CCCCC4)CNC6=O)nc3)CC2)sc1C` [CPD-323, N-(4,5-Dimethylthiazol-2-yl)-2-(3-(2-(2-(2-(4-(6-((6′-oxo-7′,8′-dihydro-6′H-spiro[cyclohexane-1,9′-pyrazino[1′,2′:1,5]pyrrolo[2,3-d]pyrimidin]-2′-yl)amino)pyridin-3-yl)piperazin-1-yl)acetamido)ethoxy)ethoxy)propanamido)benzamide], the “CyclinD1 Degradation (10 μM)” value in test [1] is listed as “A (protein percentage degradation >= 80%)”. Also, the inhibition at 10 µM in test [2] was 50 to 80%.

Consider `Cc1nc(NC(=O)c2ccccc2NC(=O)CCOCCOCCOCCNC(=O)CN2CCN(c3ccc(Nc4ncc5cc6n(c5n4)C4(CCCCC4)CNC6=O)nc3)CC2)sc1C` [CPD-324, N-(4,5-Dimethylthiazol-2-yl)-2-(2-oxo-1-(4-(6-((6′-oxo-7′,8′-dihydro-6′H-spiro[cyclohexane-1,9′-pyrazino[1′,2′:1,5]pyrrolo[2,3-d]pyrimidin]-2′-yl)amino)pyridin-3-yl)piperazin-1-yl)-6,9,12-trioxa-3-azapentadecan-15-amido)benzamide], for which the “CyclinD1 Degradation (10 μM)” value in test [1] is recorded as “A (protein percentage degradation >= 80%)”. The inhibition at 10 µM in test [2] was in the range of 50 to 80%.

Consider `Cc1nc(NC(=O)c2ccccc2NC(=O)CCOCCOCCOCCOCCNC(=O)CN2CCN(c3ccc(Nc4ncc5cc6n(c5n4)C4(CCCCC4)CNC6=O)nc3)CC2)sc1C` [CPD-325, N-(4,5-Dimethylthiazol-2-yl)-2-(2-oxo-1-(4-(6-((6′-oxo-7′,8′-dihydro-6′H-spiro[cyclohexane-1,9′-pyrazino[1′,2′:1,5]pyrrolo[2,3-d]pyrimidin]-2′-yl)amino)pyridin-3-yl)piperazin-1-yl)-6,9,12,15-tetraoxa-3-azaoctadecan-18-amido)benzamide], for which the “CyclinD1 Degradation (10 μM)” value in test [1] is given as “A (protein percentage degradation >= 80%)”. In addition, the inhibition at 10 µM in test [2] was 50 to 80%.

Take `Cc1nc(NC(=O)c2ccccc2NC(=O)CCOCCOCCOCCOCCOCCNC(=O)CN2CCN(c3ccc(Nc4ncc5cc6n(c5n4)C4(CCCCC4)CNC6=O)nc3)CC2)sc1C` [CPD-326, N-(4,5-Dimethylthiazol-2-yl)-2-(2-oxo-1-(4-(6-((6′-oxo-7′,8′-dihydro-6′H-spiro[cyclohexane-1,9′-pyrazino[1′,2′:1,5]pyrrolo[2,3-d]pyrimidin]-2′-yl)amino)pyridin-3-yl)piperazin-1-yl)-6,9,12,15,18-pentaoxa-3-azahenicosan-21-amido)benzamide]: in test [1], the “CyclinD1 Degradation (10 μM)” value was “A (protein percentage degradation >= 80%)”. In addition, the inhibition at 10 µM in test [2] fell in the range of 50 to 80%.

As to `Cc1nc(NC(=O)c2ccccc2NC(=O)CCOCCOCCOCCOCCOCCOCCNC(=O)CN2CCN(c3ccc(Nc4ncc5cc6n(c5n4)C4(CCCCC4)CNC6=O)nc3)CC2)sc1C` [CPD-327, N-(4,5-Dimethylthiazol-2-yl)-2-(2-oxo-1-(4-(6-((6′-oxo-7′,8′-dihydro-6′H-spiro[cyclohexane-1,9′-pyrazino[1′,2′:1,5]pyrrolo[2,3-d]pyrimidin]-2′-yl)amino)pyridin-3-yl)piperazin-1-yl)-6,9,12,15,18,21-hexaoxa-3-azatetracosan-24-amido)benzamide], in test [1], the “CyclinD1 Degradation (10 μM)” value is given as “A (protein percentage degradation >= 80%)”. Also, the inhibition at 10 µM in test [2] fell in the range of 50 to 80%.

In the case of `CC(=O)c1c(C)c2cnc(Nc3ccc(N4CCN(CC(=O)NCCCCCCCNc5cccc(C(=O)Nc6ccc(C)nc6)c5C)CC4)cn3)nc2n(C2CCCC2)c1=O` [CPD-328, 3-((7-(2-(4-(6-((6-Acetyl-8-cyclopentyl-5-methyl-7-oxo-7,8-dihydropyrido[2,3-d]pyrimidin-2-yl)amino)pyridin-3-yl)piperazin-1-yl)acetamido)heptyl)amino)-2-methyl-N-(6-methylpyridin-3-yl)benzamide], in test [1], the “CyclinD1 Degradation (200 nM)” value is “D (protein percentage degradation <30%)”. Also, in test [2], the inhibition at 0.2 µM was below 30%.

As to `CC(=O)c1c(C)c2cnc(Nc3ccc(N4CCN(CC(=O)NCCCCCCCNc5cccc(C(=O)Nc6cc(C)n(C)n6)c5C)CC4)cn3)nc2n(C2CCCC2)c1=O` [CPD-329, 3-((7-(2-(4-(6-((6-Acetyl-8-cyclopentyl-5-methyl-7-oxo-7,8-dihydropyrido[2,3-d]pyrimidin-2-yl)amino)pyridin-3-yl)piperazin-1-yl)acetamido)heptyl)amino)-N-(1,5-dimethyl-1H-pyrazol-3-yl)-2-methylbenzamide], the “CyclinD1 Degradation (200 nM)” value in test [1] is reported as “A (protein percentage degradation >=80%)”. Moreover, the inhibition at 0.2 µM in test [2] was above 80%.

As for `CC(=O)c1c(C)c2cnc(Nc3ccc(N4CCN(CC(=O)NCCOCCOCCC(=O)Nc5cccc(Cl)c5C(=O)Nc5ccc(C)cn5)CC4)cn3)nc2n(C2CCCC2)c1=O` [CPD-337], the “CyclinD1 Degradation (200 nM)” value in test [1] is reported as “D (protein percentage degradation <30%)”. For the same compound, the inhibition at 0.2 µM in test [2] is below 30%.

For `CC(=O)c1c(C)c2cnc(Nc3ccc(N4CCN(CC(=O)NCCCCCCCNc5nc(C)ccc5C(=O)Nc5nc(C)c(C)s5)CC4)cn3)nc2n(C2CCCC2)c1=O` [CPD-338, 2-((7-(2-(4-(6-((6-Acetyl-8-cyclopentyl-5-methyl-7-oxo-7,8-dihydropyrido[2,3-d]pyrimidin-2-yl)amino)pyridin-3-yl)piperazin-1-yl)acetamido)heptyl)amino)-N-(4,5-dimethylthiazol-2-yl)-6-methylnicotinamide], in test [1], the “CyclinD1 Degradation (200 nM)” value was “A (protein percentage degradation >=80%)”. The inhibition at 0.2 µM in test [2] was 50 to 80%.

On to `CNc1ccc(C(=O)Nc2ccc(C)cn2)c(NC(=O)CCOCCOCCNC(=O)CN2CCN(c3ccc(Nc4ncc5c(C)c(C(C)=O)c(=O)n(C6CCCC6)c5n4)nc3)CC2)c1` [CPD-339, 2-(3-(2-(2-(2-(4-(6-((6-Acetyl-8-cyclopentyl-5-methyl-7-oxo-7,8-dihydropyrido[2,3-d]pyrimidin-2-yl)amino)pyridin-3-yl)piperazin-1-yl)acetamido)ethoxy)ethoxy)propanamido)-4-(methylamino)-N-(5-methylpyridin-2-yl)benzamide], for which the “CyclinD1 Degradation (200 nM)” value in test [1] is recorded as “A (protein percentage degradation >=80%)”. In test [2], the inhibition at 0.2 µM is above 80%.

The values are drawn from patent US20250235543A1, “MODIFIED PROTEINS AND PROTEIN DEGRADERS” (Cullgen (Shanghai), Inc., priority 2021, published 2025).
